Measurements taken from ChEMBL document CHEMBL2396621, “Design, synthesis and biological evaluation of 2-mercapto-3-phenethylquinazoline bearing anilide fragments as potential antitumor agents: molecular docking study” (2013).

Experiments:
Assay type in all cases: functional
T47D = assay: Cytotoxicity against human T47D cells assessed as growth inhibition at 10 uM after 48 hrs by coulter counter analysis; conditions: read-out: GI
SN12C = assay: Cytotoxicity against human SN12C cells assessed as growth inhibition at 10 uM after 48 hrs by coulter counter analysis; conditions: read-out: GI
Malme-3M = assay: Cytotoxicity against human MALME-3M cells assessed as growth inhibition at 10 uM after 48 hrs by coulter counter analysis; conditions: read-out: GI
BT-549 = assay: Cytotoxicity against human BT549 cells assessed as growth inhibition at 10 uM after 48 hrs by coulter counter analysis; conditions: BT-549, 48 h, read-out: GI
A549 = assay: Cytotoxicity against human A549 cells assessed as growth inhibition at 10 uM after 48 hrs by coulter counter analysis; conditions: A549, 48 h, read-out: GI
RXF 393 = assay: Cytotoxicity against human RXF393 cells assessed as growth inhibition at 10 uM after 48 hrs by coulter counter analysis; conditions: RXF 393, 48 h, read-out: GI
SK-OV-3 = assay: Cytotoxicity against human SKOV3 cells assessed as growth inhibition at 10 uM after 48 hrs by coulter counter analysis; conditions: SK-OV-3, 48 h, read-out: GI
SF-539 = assay: Cytotoxicity against human SF539 cells assessed as growth inhibition at 10 uM after 48 hrs by coulter counter analysis; conditions: SF-539, 48 h, read-out: GI
MDA-MB-231 = assay: Cytotoxicity against human MDA-MB-231 cells assessed as growth inhibition at 10 uM after 48 hrs by coulter counter analysis; conditions: MDA-MB-231, 48 h, read-out: GI
OVCAR-5 = assay: Cytotoxicity against human OVCAR5 cells assessed as growth inhibition at 10 uM after 48 hrs by coulter counter analysis; conditions: OVCAR-5, 48 h, read-out: GI
A498 = assay: Cytotoxicity against human A498 cells assessed as growth inhibition at 10 uM after 48 hrs by coulter counter analysis; conditions: A498, 48 h, read-out: GI
SW-620 = assay: Cytotoxicity against human SW620 cells assessed as growth inhibition at 10 uM after 48 hrs by coulter counter analysis; conditions: SW-620, 48 h, read-out: GI
MCF7 = assay: Cytotoxicity against human MCF7 cells assessed as growth inhibition at 10 uM after 48 hrs by coulter counter analysis; conditions: MCF7, 48 h, read-out: GI
SNB-19 = assay: Cytotoxicity against human SNB19 cells assessed as growth inhibition at 10 uM after 48 hrs by coulter counter analysis; conditions: SNB-19, 48 h, read-out: GI
NCI-H522 = assay: Cytotoxicity against human NCI-H522 cells assessed as growth inhibition at 10 uM after 48 hrs by coulter counter analysis; conditions: NCI-H522, 48 h, read-out: GI
MOLT-4 = assay: Cytotoxicity against human MOLT4 cells assessed as growth inhibition at 10 uM after 48 hrs by coulter counter analysis; conditions: MOLT-4, 48 h, read-out: GI
HL-60(TB) = assay: Cytotoxicity against human HL-60(TB) cells assessed as growth inhibition at 10 uM after 48 hrs by coulter counter analysis; conditions: HL-60, 48 h, read-out: GI

| SMILES | inhibition of growth at 10 µM (T47D) [%] | inhibition of growth at 10 µM (SN12C) [%] | inhibition of growth at 10 µM (Malme-3M) [%] | inhibition of growth at 10 µM (BT-549) [%] | inhibition of growth at 10 µM (A549) [%] | inhibition of growth at 10 µM (RXF 393) [%] | inhibition of growth at 10 µM (SK-OV-3) [%] | inhibition of growth at 10 µM (SF-539) [%] | inhibition of growth at 10 µM (MDA-MB-231) [%] | inhibition of growth at 10 µM (OVCAR-5) [%] | inhibition of growth at 10 µM (A498) [%] | inhibition of growth at 10 µM (SW-620) [%] | inhibition of growth at 10 µM (MCF7) [%] | inhibition of growth at 10 µM (SNB-19) [%] | inhibition of growth at 10 µM (NCI-H522) [%] | inhibition of growth at 10 µM (MOLT-4) [%] | inhibition of growth at 10 µM (HL-60(TB)) [%] |
| --- | --- | --- | --- | --- | --- | --- | --- | --- | --- | --- | --- | --- | --- | --- | --- | --- | --- |
| O=C(CSc1nc2ccccc2c(=O)n1CCc1ccccc1)Nc1cc(Cl)ccc1C(=O)O | < 10 | < 10 | < 10 | 10 | < 10 | < 10 | < 10 | < 10 | < 10 | < 10 | 10 | < 10 | < 10 | < 10 | < 10 | – | – |
| CCOc1ccc(NC(=O)CSc2nc3ccccc3c(=O)n2CCc2ccccc2)cc1 | 15 | < 10 | 37 | < 10 | 13 | 13 | < 10 | < 10 | 25 | < 10 | < 10 | < 10 | 12 | < 10 | 11 | 10 | – |
| O=C(CSc1nc2ccccc2c(=O)n1CCc1ccccc1)Nc1ccccc1 | 13 | < 10 | < 10 | < 10 | 16 | < 10 | 14 | < 10 | 35 | < 10 | 11 | < 10 | 19 | < 10 | 10 | < 10 | 17 |
| O=C(CSc1nc2ccccc2c(=O)n1CCc1ccccc1)NCc1ccccc1 | 20 | 20 | 14 | < 10 | 17 | 16 | 14 | 38 | 37 | < 10 | < 10 | < 10 | 21 | 17 | 28 | – | – |
| Cc1ccc(NC(=O)CSc2nc3ccccc3c(=O)n2CCc2ccccc2)cc1 | 44 | < 10 | 17 | < 10 | 21 | 10 | 20 | 19 | 23 | < 10 | < 10 | 10 | 23 | 22 | 22 | < 10 | < 10 |
| COc1ccc(NC(=O)CSc2nc3ccccc3c(=O)n2CCc2ccccc2)cc1 | < 10 | < 10 | 40 | 10 | 25 | 21 | 25 | 10 | 39 | < 10 | < 10 | 11 | 11 | 41 | < 10 | – | – |
